# According to patent US9133206B2, “Benzodiazepine and pyridodiazepine derivatives” (AbbVie Inc., priority 2010, dated 2015):
# Tested on: SK-N-SH human neuroblastoma cells
# Experiment: Serum Deprivation/JC-1 Mitochondrial Membrane Potential (MMP) Assay
# Assay type: cell-based
# Conditions: Homo sapiens, SK-N-SH; for EC50: 18 h, serum deprivation ~18 hours, JC-1 ratio normalized to peak value for 10 μM dimebolin, single curve fit to mean data of n=2-3; for Emax: percent maximal intensity in JC-1 ratio normalized to peak value for 10 μM dimebolin, serum deprivation, read-out: JC-1 max %
# Text: The method also involves a high-throughput assay using serum-deprivation conditions involving neuronal cells to screen for compounds that increase or preserve mitochondrial membrane potential. Such compounds can be found to aid in rescuing cells from energy-depletion that occurs in several neurodegenerative states. Mitochondrial-mediated apoptosis occurs in response to a wide range of apoptotic stimuli including p^53, c-myc, DNA damage, prooxidants, chemotherapeutic agents, serum starvation and death receptor activation (Lin C—H., Lu Y-Z., Cheng, F-C., Chu L-F. and Hsuch C-M. Bax-regulated mitochondrial-mediated apoptosis is responsible for the in vitro ischemia induced neuronal cell death of Sprague Dawley rat. Neuroscience Lett. 2005, 387, 22-27).
# Thus, this stress inducer, serum deprivation, combined with monitoring changes in the mitochondrial membrane potential in a 96-well format allows for the establishment of an efficient high-throughput screen (HTS) in order to evaluate the ability of compounds to increase mitochondrial membrane potential in the presence of stress and preserve health of the cell. Exemplary procedures for conducting such high-throughput assay are provided below.
# SK-N-SH human neuroblastoma cells obtained from American Type Culture Collection (Rockville, Md.) were maintained in the log phase of growth in Minimal Essential Media (MEM), 10% heat inactivated fetal calf serum and 100 units/mL antibiotic-antimycotic (AA). Cells were cultured and maintained in a humidified incubator at 37° C. under 5% CO2 and 95% air. Cells were trypsinized (0.25%) and subcultured every 3 days and used from 15-18 passages. All cell culture supplies were obtained from Invitrogen (Carlsbad, Calif.).
# SK-N-SH cells were plated 2-3 days in advance at a concentration of 50,000 cells/well onto collagen coated black-walled 96 well plates (Becton-Dickinson, Bedford, Mass.) in a total volume of […]. On day of experimental treatment, the media containing serum was aspirated from each well and rinsed once with MEM/1% AA without serum. The cells then were incubated overnight in 100 μL of MEM/1% AA (no serum) with and without dimebolin or novel chemical entities overnight for ˜18 hours. The following day, JC-1 dye (5,5′,6,6′-tetrachloro-1,1′,3,3′-tetraethylbenzimidazolcarbocyanide) was diluted 1:10 into MEM media according to the JC-1 Mitochondrial Membrane Potential Assay Kit: (Cayman Chemical Company, Ann Arbor, Mich.) and then 10 μL of the JC-1 dye solution was added to each well. The plates were centrifuged for 5 minutes at 400×g at room temperature followed by 40 minute incubation at 37° C. The plates were washed twice with 200 μL of provided Assay Buffer followed an addition of 100 μL of Assay Buffer to each well. The plates were read with an excitation and emission of 560 nm and 595 nM for red fluorescence and with an excitation and emission of 485 nm and 535 nM for green fluorescence to determine the final JC-1 value taking the red to green fluorescence ratio. This assay is based on change in mitochondrial membrane potential (MMP) using this lipophilic cationic dye, JC-1, by monitoring the changes in the ratio of red to green fluorescence as the MMP depolarizes. This change in MMP reflects the health of the cell with healthy, viable cells have a high JC-1 ratio and high MMP whereas apoptotic, unhealthy cells have a low JC-1 ratio or low MMP.
# For the ability of compounds to reverse the stress due to serum deprivation and increase the JC-1 ratio, the percent maximal intensity in JC-1 ratio was normalized to that induced by the peak value for 10 μM dimebolin and plotted against the compound concentration to calculate EC50 values and to control for plate-to-plate variability. Concentration-response data were analyzed using GraphPad Prism (San Diego, Calif.); the EC50 values were derived from a single curve fit to the mean data of n=2-3, in duplicates. […]
SMILES,EC50 [µM],Emax [%]
"O=C(Cc1ccc(Cl)cc1)N1CCC2CN(Cc3ccccc3)CCN2c2ncccc21 (centres unmarked) [Example 53, 1-(9-benzyl-7,7a,8,9,10,11-hexahydropyrazino[1,2-d]pyrido[3,2-b][1,4]diazepin-5(6H)-yl)-2-(4-chlorophenyl)ethanone]",9.88,210
"Clc1ccc(CCN2CCC3CN(Cc4ccccc4)CCN3c3ncccc32)cc1 (centres unmarked) [Example 54, 9-benzyl-5-[2-(4-chlorophenyl)ethyl]-5,6,7,7a,8,9,10,11-octahydropyrazino[1,2-d]pyrido[3,2-b][1,4]diazepine]",3.59,177
"CN1CCC2CN(Cc3ccccc3)CCN2c2ncccc21 (centres unmarked) [Example 55, 9-benzyl-5-methyl-5,6,7,7a,8,9,10,11-octahydropyrazino[1,2-d]pyrido[3,2-b][1,4]diazepine]",9.95,99
"Fc1ccc(CN2CCN3c4ccccc4CN(Cc4ccc(Br)cc4)CC3C2)cc1 (centres unmarked) [Example 56, 6-(4-bromobenzyl)-3-(4-fluorobenzyl)-1,2,3,4,4a,5,6,7-octahydropyrazino[1,2-a][1,4]benzodiazepine]",5.17,161
"CN1CCN2c3ccccc3CN(Cc3ccc(Br)cc3)CC2C1 (centres unmarked) [Example 57, 6-(4-bromobenzyl)-3-methyl-1,2,3,4,4a,5,6,7-octahydropyrazino[1,2-a][1,4]benzodiazepine]",10.2,167
"CC1(C)C(C(=O)N2CCC3CN(Cc4ccccc4)CCN3c3ncccc32)C1(C)C (centres unmarked) [Example 58, (9-benzyl-7,7a,8,9,10,11-hexahydropyrazino[1,2-d]pyrido[3,2-b][1,4]diazepin-5(6H)-yl)(2,2,3,3-tetramethylcyclopropyl)methanone]",3.65,215
"CC1(C)C(CN2CCC3CN(Cc4ccccc4)CCN3c3ncccc32)C1(C)C (centres unmarked) [Example 59, 9-benzyl-5-[(2,2,3,3-tetramethylcyclopropyl)methyl]-5,6,7,7a,8,9,10,11-octahydropyrazino[1,2-d]pyrido[3,2-b][1,4]diazepine]",3.4,306
"O=C(Cc1ccc(Cl)nc1)N1Cc2ccccc2N2CCN(Cc3ccccc3)CC2C1 (centres unmarked) [Example 60, 1-(3-benzyl-1,2,3,4,4a,5-hexahydropyrazino[1,2-a][1,4]benzodiazepin-6(7H)-yl)-2-(6-chloropyridin-3-yl)ethanone]",4.14,224
"Clc1ccc(CCN2Cc3ccccc3N3CCN(Cc4ccccc4)CC3C2)cn1 (centres unmarked) [Example 63, 3-benzyl-6-[2-(6-chloropyridin-3-yl)ethyl]-1,2,3,4,4a,5,6,7-octahydropyrazino[1,2-a][1,4]benzodiazepine]",1.95,173
"Fc1ccc(CN2CCN3c4ncccc4N(CC4CC4)CCC3C2)cc1 (centres unmarked) [Example 64, 5-(cyclopropylmethyl)-9-(4-fluorobenzyl)-5,6,7,7a,8,9,10,11-octahydropyrazino[1,2-d]pyrido[3,2-b][1,4]diazepine]",5.66,139
"Fc1ccc(CN2CCN3c4ncccc4N(CC4CCC4)CCC3C2)cc1 (centres unmarked) [Example 65, 5-(cyclobutylmethyl)-9-(4-fluorobenzyl)-5,6,7,7a,8,9,10,11-octahydropyrazino[1,2-d]pyrido[3,2-b][1,4]diazepine]",4.59,133
"CC(C)(C)OC(=O)N1CCN2c3ccccc3CN(Cc3ccc(Br)cc3)CC2C1 (centres unmarked) [Example 66, tert-butyl 6-(4-bromobenzyl)-1,2,4a,5,6,7-hexahydropyrazino[1,2-a][1,4]benzodiazepine-3(4H)-carboxylate]",4.84,192
"CC(C)(C)OC(=O)N1CCN2c3ccccc3CN(Cc3ccc(Br)cc3)C(=O)C2C1 (centres unmarked) [Example 67, tert-butyl 6-(4-bromobenzyl)-5-oxo-1,2,4a,5,6,7-hexahydropyrazino[1,2-a][1,4]benzodiazepine-3(4H)-carboxylate]",5.06,215
"Fc1ccc(CN2CCN3c4ncccc4N(C[C@@H]4CCN4)CCC3C2)cc1 (stereo partly drawn) [Example 68, 5-[(2S)-azetidin-2-ylmethyl]-9-(4-fluorobenzyl)-5,6,7,7a,8,9,10,11-octahydropyrazino[1,2-d]pyrido[3,2-b][1,4]diazepine]",8.64,157
"Fc1ccc(CN2CCN3c4ncccc4N(CC4CNC4)CCC3C2)cc1 (centres unmarked) [Example 69, 5-(azetidin-3-ylmethyl)-9-(4-fluorobenzyl)-5,6,7,7a,8,9,10,11-octahydropyrazino[1,2-d]pyrido[3,2-b][1,4]diazepine]",10.3,154
"O=C1C2CNCCN2c2ccccc2CN1Cc1ccc(Br)cc1 (centres unmarked) [Example 70, 6-(4-bromobenzyl)-2,3,4,4a,6,7-hexahydropyrazino[1,2-a][1,4]benzodiazepin-5(1H)-one]",9.61,156
"Brc1ccc(CN2Cc3ccccc3N3CCNCC3C2)cc1 (centres unmarked) [Example 71, 6-(4-bromobenzyl)-1,2,3,4,4a,5,6,7-octahydropyrazino[1,2-a][1,4]benzodiazepine]",7.85,105
"O=C(C1CC1)N1CCC2CNCCN2c2ncccc21 (centres unmarked) [Example 72, cyclopropyl(7,7a,8,9,10,11-hexahydropyrazino[1,2-d]pyrido[3,2-b][1,4]diazepin-5(6H)-yl)methanone]",13.3,98
"O=C1C2CN(Cc3ccc(F)cc3)CCN2c2ccccc2CN1Cc1ccc(Br)cc1 (centres unmarked) [Example 73, 6-(4-bromobenzyl)-3-(4-fluorobenzyl)-2,3,4,4a,6,7-hexahydropyrazino[1,2-a][1,4]benzodiazepin-5(1H)-one]",4.27,229
"O=C(c1cccnc1)N1CCN2c3ncccc3N(CC3CC3)CCC2C1 (centres unmarked) [Example 74, [5-(cyclopropylmethyl)-6,7,7a,8,10,11-hexahydropyrazino[1,2-d]pyrido[3,2-b][1,4]diazepin-9(5H)-yl](pyridin-3-yl)methanone]",7.82,109
"O=C(N1CCOCC1)N1Cc2ccccc2N2CCNCC2C1 (centres unmarked) [Example 75, 1,2,3,4,4a,5-hexahydropyrazino[1,2-a][1,4]benzodiazepin-6(7H)-yl(morpholin-4-yl)methanone]",> 10,48
"O=C(N1CCOCC1)N1Cc2ccccc2N2CCN(Cc3ccc(F)cc3)CC2C1 (centres unmarked) [Example 76, [3-(4-fluorobenzyl)-1,2,3,4,4a,5-hexahydropyrazino[1,2-a][1,4]benzodiazepin-6(7H)-yl](morpholin-4-yl)methanone]",7.06,127
"CN1CCN2c3ccccc3CN(C(=O)N3CCOCC3)CC2C1 (centres unmarked) [Example 77, (3-methyl-1,2,3,4,4a,5-hexahydropyrazino[1,2-a][1,4]benzodiazepin-6(7H)-yl)(morpholin-4-yl)methanone]",10.2,57
"O=C(Cn1ncccc1=O)N1CCC2CN(Cc3ccccc3)CCN2c2ccccc21 (centres unmarked) [Example 78, 2-[2-(3-benzyl-2,3,4,4a,5,6-hexahydropyrazino[1,2-a][1,5]benzodiazepin-7(1H)-yl)-2-oxoethyl]pyridazin-3(2H)-one]",8.55,143
"O=C(c1ccccc1)N1CCN2c3ccccc3CN(C(=O)N3CCOCC3)CC2C1 (centres unmarked) [Example 79, (3-benzoyl-1,2,3,4,4a,5-hexahydropyrazino[1,2-a][1,4]benzodiazepin-6(7H)-yl)(morpholin-4-yl)methanone]",9.25,86
